Reference: publication PMC11538131, “Degradation mechanism of difructose dianhydride III in Blautia species” (Applied Microbiology and Biotechnology, 2024)

Molecular target: T1, GH32 β-D-fructofuranosidase BBDE_1523 (Bifidobacterium dentium, UniProt D2Q5I2)
T1 construct: gene fosC; cloned and expressed as BpDFA-IIIase (pET23a, C-terminal His-tag, E. coli BL21(DE3), TALON)
T1 sequence (D2Q5I2 1-518): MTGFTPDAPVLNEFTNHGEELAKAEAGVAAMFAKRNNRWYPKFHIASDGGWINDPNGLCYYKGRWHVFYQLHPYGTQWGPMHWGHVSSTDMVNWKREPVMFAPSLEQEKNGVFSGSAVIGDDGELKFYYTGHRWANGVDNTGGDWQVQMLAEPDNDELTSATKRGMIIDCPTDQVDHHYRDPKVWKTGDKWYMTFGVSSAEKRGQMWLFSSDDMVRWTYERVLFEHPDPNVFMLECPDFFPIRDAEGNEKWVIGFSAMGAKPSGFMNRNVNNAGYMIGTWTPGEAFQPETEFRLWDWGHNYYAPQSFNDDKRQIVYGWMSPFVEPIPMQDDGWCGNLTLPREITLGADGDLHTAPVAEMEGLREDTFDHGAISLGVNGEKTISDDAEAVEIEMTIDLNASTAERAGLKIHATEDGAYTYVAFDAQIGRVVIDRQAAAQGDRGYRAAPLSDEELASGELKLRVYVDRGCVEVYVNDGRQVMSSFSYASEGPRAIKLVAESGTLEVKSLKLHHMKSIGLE
Test: TLC and HPAEC-PAD
Type: biochemical
Conditions: 50 mM acetate pH 6.0, 37 °C, overnight; together with BpDFA-IIIase

SMILES: OC[C@H]1O[C@@](CO)(OCC2(O)OC[C@@H](O)[C@@H](O)[C@@H]2O)[C@@H](O)[C@@H]1O (stereo partly shown) [inulobiose]
- TLC and HPAEC-PAD: DFA-III was completely hydrolyzed into D-fructose via inulobiose
